From patent US20250152592A1, “PHARMACEUTICAL COMPOSITION COMPRISING ALLOPURINOL, FEBUXOSTAT OR PHARMACEUTICALLY ACCEPTABLE SALT THEREOF FOR PREVENTION OR TREATMENT OF CHRONIC KIDNEY DISEASE IN SUBJECT HAVING HIGH SERUM URIC ACID CONCENTRATION” (Indream Healthcare Inc., priority 2022, published 2025)

Key:
[1] = system: patients with gout and a history of major cardiovascular diseases; test: clinical trial febuxostat vs allopurinol: serum uric acid, gout flare, treatment discontinuation; assay type: in vivo, human; conditions: for rate of gout flare: overall, during the trial
Procedure: In order to evaluate non-inferiority of febuxostat to allopurinol related to cardiovascular risk, a clinical trial was designed and proceeded.
A multicenter, randomized, double-blind non-inferiority trial was performed. The details of the clinical trial design have been published previously. An independent data and safety monitoring committee with access to unblinded data monitored the clinical trial. The statistical analysis for the data and the safety monitoring committee was performed by an independent statistical group (WebbWrites).
The patients were regarded as having a history of major cardiovascular diseases, if they had myocardial infarction, hospitalization for unstable angina, stroke, hospitalization for transient ischemic attack, peripheral vascular disease, or diabetes mellitus symptoms. All participants provided a prior informed consent form.
The patients were randomly assigned so that they received febuxostat or allopurinol administered once a day in a double-blind manner. The randomization was stratified according to the estimated creatinine clearance at baseline (patient group having an estimated creatinine clearance ≥60 ml per minute vs patient group having an estimated creatinine clearance ≥30 and <60 ml per minute).
The dose of allopurinol was modified according to a kidney function. The patients with the estimated creatinine clearance 60 ml or more per minute i) initially received allopurinol at a dose of 300 mg once a day, and the dose was increased in 100 mg increments monthly until the patient had the serum uric acid concentration of less than 6.0 mg per deciliter or the dosage of allopurinol was 600 mg once a day. The patient having the estimated creatinine clearance of 30 ml or more and less than 60 ml per minute initially received 200 mg of allopurinol, and then the dose was increased in 100 mg increments until the patient either had the serum uric acid concentration of less than 6.0 mg per deciliter or was receiving the allopurinol dose of 400 mg once daily.
The dose of febuxostat was not modified according to the kidney function. The patients who were randomly assigned to receive febuxostat initially received 40 mg once a daily, and continued to receive the same dosage if the serum uric acid concentration was less than 6.0 mg per deciliter after 2 weeks of the treatment. If the serum uric acid concentration was higher than 6.0 mg per deciliter at 2nd week visit, the dose of febuxostat was increased to 80 mg once daily for the remainder of the trial.
During the period, the administration of a double-blind and double-dummy trial medications was guided by an interactive voice-response system which was a procedure to prevent unblinding for the patients whose dose was not adjusted. After completing dose adjustment, the urate level was concealed from the investigators, and the treatment was managed throughout the trial using the interactive voice-response system.
Outpatient visits were conducted according to the following schedule: during screening and randomization, and at 2, 4, 6, 8, 10, 12, and 24 weeks after the randomization, and every 6 months during the subsequent years of the trial. The patients with reduced kidney function or, the patients aged 65 years or older at randomization were visited at 9 and 15 months for monitoring the serum chemical profile. If the patient agreed to be monitored, but would not return for study visit, telephone contact was made, but such method was not preferred or recommended.

[2] = system: patients with gout and a history of major cardiovascular diseases; test: odds ratio for risk of developing or worsening chronic kidney disease, serum uric acid at or above 6 vs below 6; assay type: in vivo, human
Procedure: In order to confirm the effect of allopurinol and febuxostat on the kidney disease, the data obtained in the clinical trial described above was analyzed.
The patients were classified into patient groups by specific biomarkers such as blood glucose level, blood pressure, and kidney disease steps, and then risks of developing or worsening the kidney disease in patients who had the serum uric acid concentration decreased to less than 6 and patients who maintained the serum uric acid concentration at or above 6 were confirmed using odds ratios (OR) after the administration of allopurinol and febuxostat, and the results are shown in Tables 1 to 3.
Risks of developing the kidney disease of the patients who had the serum uric acid concentration decreased to less than 6 and the patients who maintained the serum uric acid concentration at or above 6 by administering allopurinol were confirmed using the odds ratios, and the results are shown in the following Table 1.
(§1) In Table 6, the risks of developing the kidney disease of the patients who had the serum uric acid concentration decreased to less than 6 and the patients who maintained the serum uric acid concentration at or above 6 by administering febuxostat are confirmed using the odds ratios.
as §1, with “12,” for “6,”, “were” for “by administering febuxostat are”, “ratio, in both patient groups to which allopurinol or febuxostat was administered.” for “ratios.”

[3] = Table 12, both administration groups

## Oc1ncnc2[nH]ncc12 [allopurinol]
[1]
  rate of gout flare: 0.63 per patient-year
[2]; Table 12, blood glucose ≥126 mg/dl, DBP ≤80 mm/Hg, or SBP ≤130 mm/Hg
  prevention or treatment of chronic kidney disease when serum uric acid maintained below 6: effectively prevented or treated
[2]; [3]
  prevention or treatment of chronic kidney disease when serum uric acid maintained below 6: effectively prevented or treated
[2]; allopurinol, blood glucose level of 126 mg/dl or less
  risk of developing or worsening the chronic kidney disease, serum uric acid at or above 6 vs below 6 (odds ratio): about 1.34 times
[2]; allopurinol, blood glucose level of 126 mg/dl or more
  risk of developing or worsening the chronic kidney disease, serum uric acid at or above 6 vs below 6 (odds ratio): about 2.53 times
[2]; allopurinol, diastolic blood pressure of 80 mm/Hg or higher
  risk of developing or worsening the kidney disease, serum uric acid at or above 6 vs below 6 (odds ratio): about 1.35 times
[2]; allopurinol, diastolic blood pressure of 80 mm/Hg or lower
  risk of developing or worsening the chronic kidney disease, serum uric acid at or above 6 vs below 6 (odds ratio): about 2.04 times
[2]; allopurinol, having congestive cardiac failure
  risk of developing or worsening the chronic kidney disease, serum uric acid at 6 or more vs below 6 (odds ratio): about 1.21 times
[2]; allopurinol, no congestive cardiac failure
  risk of developing or worsening the chronic kidney disease, serum uric acid at 6 or more vs below 6 (odds ratio): about 1.84 times
[2]; allopurinol, systolic blood pressure of 130 mm/Hg or higher
  risk of developing or worsening the chronic kidney disease, serum uric acid at or above 6 vs below 6 (odds ratio): about 1.54 times
[2]; allopurinol, systolic blood pressure of 130 mm/Hg or lower
  risk of developing or worsening the chronic kidney disease, serum uric acid at or above 6 vs below 6 (odds ratio): about 1.93 times

## Cc1nc(-c2ccc(OCC(C)C)c(C#N)c2)sc1C(=O)O [febuxostat]
[1]; after 2nd week, at most times, febuxostat group vs allopurinol group
  proportion of patients with maintenance of serum uric acid concentration at less than 6.0 mg per deciliter: a higher proportion of the patients in the febuxostat group
[1]; at the 2nd week, febuxostat group vs allopurinol group
  proportion of patients with serum uric acid concentration of less than 6.0 mg per deciliter: higher in the febuxostat group than in the allopurinol group
[1]; entire trial, febuxostat group vs allopurinol group
  proportion of patients with serum uric acid concentration of less than 5.0 mg per deciliter: a larger proportion of the patients in the febuxostat group than in the allopurinol group
[1]
  rate of gout flare: 0.68 per patient-year
[2]; Table 6, blood glucose ≥126 mg/dl, DBP ≤80 mm/Hg, or SBP ≤130 mm/Hg
  prevention or treatment of chronic kidney disease when serum uric acid maintained below 6: effectively prevented or treated
[2]; Table 6, serum uric acid of 8 mg/dL or more or gout lasting for 10 years or more
  prevention or treatment of chronic kidney disease when serum uric acid maintained below 6: effectively prevented or treated
[2]; [3]
  prevention or treatment of chronic kidney disease when serum uric acid maintained below 6: effectively prevented or treated
